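Where inhibition never reached the appropriate level, the endpoint shown equals the highest concentration tested. Otherwise, values were interpolated linearly from a five-concentration, 48-hour dose response in 96-well plates. The concentration for 50% growth inhibition is given as GI50.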 Active and inactive are the calls of the source. Cut-off read from the data, not from the text of the source: active = GI50 up to about 1.1 µM and inactive = higher.
Columns and labels:
Assay in all cases: NCI-60 cell line screen, 48 h
NCI/ADR-RES = tested on: NCI/ADR-RES
SF-295 = tested on: SF-295
LOX IMVI = tested on: LOX IMVI
SNB-75 = tested on: SNB-75
SK-OV-3 = tested on: SK-OV-3
SNB-19 = tested on: SNB-19
HOP-62 = tested on: HOP-62
EKVX = tested on: EKVX
CAKI-1 = tested on: CAKI-1
786-0 = tested on: 786-0
M14 = tested on: M14
COLO 205 = tested on: COLO 205
HL-60 = tested on: HL-60
SW-620 = tested on: SW-620
A549 = tested on: A549
ACHN = tested on: ACHN
MDA-MB-435 = tested on: MDA-MB-435
BT-549 = tested on: BT-549
SF-268 = tested on: SF-268
UACC-62 = tested on: UACC-62

SMILES | GI50 (NCI/ADR-RES) | GI50 (SF-295) | GI50 (LOX IMVI) | GI50 (SNB-75) | GI50 (SK-OV-3) | GI50 (SNB-19) | GI50 (HOP-62) | GI50 (EKVX) | GI50 (CAKI-1) | GI50 (786-0) | GI50 (M14) | GI50 (COLO 205) | GI50 (HL-60) | GI50 (SW-620) | GI50 (A549) | GI50 (ACHN) | GI50 (MDA-MB-435) | GI50 (BT-549) | GI50 (SF-268) | GI50 (UACC-62)
c1cc(CSc2ncnc3[nH]cnc23)ccn1 | > 100 µM (inactive) | > 100 µM (inactive) | 28.2 µM (inactive) | > 100 µM (inactive) | 41.3 µM (inactive) | > 100 µM (inactive) | 91.8 µM (inactive) | > 100 µM (inactive) | > 100 µM (inactive) | 39 µM (inactive) | 34.8 µM (inactive) | > 100 µM (inactive) | 67.9 µM (inactive) | > 100 µM (inactive) | > 100 µM (inactive) | > 100 µM (inactive) | 53.2 µM (inactive) | 73.8 µM (inactive) | 92.9 µM (inactive) | 37.4 µM (inactive)
CC(=O)O[C@@H]1CO[C@H]2O[C@H]3[C@@H](C(C=O)=C[C@H](O)[C@@H]4C5=C(C(C)C)CC[C@]5(C)CC[C@@]34C)[C@@]2(O)C1=O [STRIATIN E] | 0.189 µM (active) | 0.586 µM (active) | 0.277 µM (active) | 0.0736 µM (active) | 3.74 µM (inactive) | 0.692 µM (active) | 0.575 µM (active) | 0.359 µM (active) | 0.2 µM (active) | 0.112 µM (active) | 0.262 µM (active) | 0.0769 µM (active) | 0.0175 µM (active) | 0.0499 µM (active) | 0.805 µM (active) | 0.114 µM (active) | 0.174 µM (active) | 0.12 µM (active) | 0.24 µM (active) | 0.515 µM (active)
CC(C)(C)CN1[C@@H]2CCCC[C@H]2N(CC(C)(C)C)P1(=O)C(O)/C=C/c1ccccc1 (stereo not given in full) | 32.7 µM (inactive) | 29.7 µM (inactive) | 18.7 µM (inactive) | 21.3 µM (inactive) | 51.8 µM (inactive) | 26.8 µM (inactive) | 50.2 µM (inactive) | 50.1 µM (inactive) | 59.8 µM (inactive) | 39.4 µM (inactive) | 27.1 µM (inactive) | 17.3 µM (inactive) | 32 µM (inactive) | 34.2 µM (inactive) | 25.1 µM (inactive) | 28.9 µM (inactive) | 42.1 µM (inactive) | 74.1 µM (inactive) | 39 µM (inactive) | 35.2 µM (inactive)
Cn1c2ccccc2c(=NNc2ccccc2C(=O)O)c2ccccc21 | 20.1 µM (inactive) | 17.6 µM (inactive) | 11.8 µM (inactive) | 21.1 µM (inactive) | 20.3 µM (inactive) | 24.4 µM (inactive) | 23.1 µM (inactive) | 11.8 µM (inactive) | 23.3 µM (inactive) | 27.5 µM (inactive) | 22.6 µM (inactive) | 16.3 µM (inactive) | 17 µM (inactive) | 24.4 µM (inactive) | 12.9 µM (inactive) | 15.5 µM (inactive) | 20 µM (inactive) | 19.1 µM (inactive) | 15.8 µM (inactive) | 19.5 µM (inactive)
O=C(n1[nH]c(=O)n(-c2ccc([N+](=O)[O-])cc2)c1=O)C(Cl)(Cl)Cl | > 75 µM (inactive) | > 75 µM (inactive) | > 75 µM (inactive) | > 75 µM (inactive) | > 75 µM (inactive) | > 75 µM (inactive) | > 75 µM (inactive) | > 75 µM (inactive) | > 75 µM (inactive) | > 75 µM (inactive) | > 75 µM (inactive) | > 75 µM (inactive) | > 75 µM (inactive) | > 75 µM (inactive) | > 75 µM (inactive) | > 75 µM (inactive) | > 75 µM (inactive) | > 75 µM (inactive) | > 75 µM (inactive) | > 75 µM (inactive)
Cc1noc(C)c1-n1nc2ccc3nonc3c2n1 | > 100 µM (inactive) | 31.7 µM (inactive) | > 100 µM (inactive) | 33.1 µM (inactive) | 34.8 µM (inactive) | 32.3 µM (inactive) | 22.5 µM (inactive) | 35.9 µM (inactive) | > 83.8 µM (inactive) | 37.5 µM (inactive) | > 100 µM (inactive) | > 100 µM (inactive) | > 100 µM (inactive) | > 100 µM (inactive) | > 100 µM (inactive) | > 88.5 µM (inactive) | > 100 µM (inactive) | 79.3 µM (inactive) | 41 µM (inactive) | > 59.8 µM (inactive)

From ChEMBL document CHEMBL1201862, “PubChem BioAssay data set” (2004)
